Data published in US10448639B2, “Fungicidal pyrazoles” (FMC CORPORATION, priority 2009, dated 2019).
Like-named read-outs stand apart in the source and are kept apart here. Marks after values point to notes of the source that are not given here.

Key:
[1] = tested on: Puccinia recondita f. sp. tritici; test: Test I: wheat leaf rust, preventive spray on wheat seedlings, visual disease rating; conditions: for pest or weed control at 200 µg/mL: 192 h
[2] = tested on: Botrytis cinerea; test: Test B: tomato Botrytis, preventive spray on tomato seedlings, visual disease rating; conditions: for pest or weed control at 200 µg/mL: Botrytis cinerea, in Solanum lycopersicum, 120 h
[3] = tested on: Septoria tritici; test: Test G: wheat leaf blotch, preventive spray on wheat seedlings, visual disease rating; conditions: for pest or weed control at 200 µg/mL: Zymoseptoria tritici, in Triticum aestivum, 504 h
[4] = tested on: Alternaria solani; test: Test C: tomato early blight, preventive spray on tomato seedlings, visual disease rating; conditions: for pest or weed control at 200 µg/mL: Alternaria solani, in Solanum lycopersicum, 168 h
[5] = tested on: Erysiphe graminis f sp. tritici; test: Test J: wheat powdery mildew, preventive spray on wheat seedlings, visual disease rating; conditions: for pest or weed control at 200 µg/mL: Blumeria graminis, in Triticum aestivum, 192 h
[6] = tested on: Septoria nodorum; test: Test F: Septoria glume blotch, preventive spray on wheat seedlings, visual disease rating; conditions: for pest or weed control at 200 µg/mL: Parastagonospora nodorum, in Triticum aestivum, 192 h
[7] = tested on: Puccinia recondita f. sp. tritici; test: Test H: wheat leaf rust, curative spray on inoculated wheat seedlings, visual disease rating; conditions: for pest or weed control at 200 µg/mL: 144 h
[8] = read-out: Test I disease control rating
[9] = read-out: Test B disease control rating
[10] = read-out: Test G disease control rating
[11] = read-out: Test C disease control rating
[12] = read-out: Test J disease control rating
[13] = read-out: Test F disease control rating
[14] = read-out: Test H disease control rating
[15] = wheat leaf rust, preventive, 100 = 100% disease control, 0 = no control relative to controls
[16] = tomato Botrytis, 100 = 100% disease control, 0 = no control relative to controls
[17] = wheat leaf blotch, 100 = 100% disease control, 0 = no control relative to controls
[18] = tomato early blight, 100 = 100% disease control, 0 = no control relative to controls
[19] = wheat powdery mildew, 100 = 100% disease control, 0 = no control relative to controls
[20] = Septoria glume blotch, 100 = 100% disease control, 0 = no control relative to controls
[21] = wheat leaf rust, curative, 100 = 100% disease control, 0 = no control relative to controls
[22] = wheat leaf rust, preventive spray, 100 = 100% disease control, 0 = no control
[23] = tomato Botrytis, preventive spray, 100 = 100% disease control, 0 = no control
[24] = wheat leaf blotch, preventive spray, 100 = 100% disease control, 0 = no control
[25] = tomato early blight, preventive spray, 100 = 100% disease control, 0 = no control
[26] = wheat powdery mildew, preventive spray, 100 = 100% disease control, 0 = no control
[27] = Septoria glume blotch on wheat, preventive spray, 100 = 100% disease control, 0 = no control
[28] = wheat leaf rust, curative spray, 100 = 100% disease control, 0 = no control
[29] = read-out: Test I rating (% disease control)
[30] = read-out: Test B rating (% disease control)
[31] = read-out: Test G rating (% disease control)
[32] = read-out: Test C rating (% disease control)
[33] = read-out: Test J rating (% disease control)
[34] = read-out: Test F rating (% disease control)
[35] = read-out: Test H rating (% disease control)

Cc1nn(C)c(Oc2ccc(C#N)cc2F)c1-c1c(F)cccc1F [Compound 361, 4-[[4-(2,6-difluorophenyl)-1,3-dimethyl-1H-pyrazol-5-yl]oxy]-3-fluorobenzonitrile]
pest or weed control at 200 µg/mL [1, 8]: 100%
pest or weed control at 200 µg/mL [2, 9]: 100%
pest or weed control at 200 µg/mL [3, 10]: 100%
pest or weed control at 200 µg/mL [4, 11]: 90%
pest or weed control at 200 µg/mL [5, 12]: 100%
pest or weed control at 200 µg/mL [6, 13]: 0%
pest or weed control at 200 µg/mL [7, 14]: 0%

Cc1nn(C)c(Oc2ccc(F)cc2C#N)c1-c1ccc(F)cc1Cl [compound 149]
Test I rating (% disease control) [1, 15]: 100%
Test B rating (% disease control) [2, 16]: 100%
Test G rating (% disease control) [3, 17]: 100%
Test C rating (% disease control) [4, 18]: 98%
Test J rating (% disease control) [5, 19]: 100%
Test F rating (% disease control) [6, 20]: 100%
Test H rating (% disease control) [7, 21]: 99%

Cc1nn(C)c(Nc2ncc(Cl)cc2Cl)c1-c1ccc(F)cc1Cl [compound 73]
Test I rating (% disease control) [1, 22]: 100%
Test B rating (% disease control) [2, 23]: 100%
Test G rating (% disease control) [3, 24]: 100%
Test C rating (% disease control) [4, 25]: 99%
Test J rating (% disease control) [5, 26]: 99%
Test F rating (% disease control) [6, 27]: 64%
Test H rating (% disease control) [7, 28]: 88%

Cc1nn(C)c(Nc2ccc(F)cc2Cl)c1-c1ccc(F)cc1F [compound 207]
Test I rating (% disease control) [1, 15]: 99%
Test B rating (% disease control) [2, 16]: 100%
Test G rating (% disease control) [3, 17]: 100%
Test C rating (% disease control) [4, 18]: 93%
Test J rating (% disease control) [5, 19]: 100%
Test F rating (% disease control) [6, 20]: 64%
Test H rating (% disease control) [7, 21]: 0%

Cc1nn(C)c(Nc2ccc(F)cc2Cl)c1-c1ccc(F)cc1Br [compound 314]
Test I disease control rating ([1]; wheat leaf rust, sprayed the day before inoculation, 100 = 100% disease control, 0 = no disease control relative to controls): 100%
Test B disease control rating ([2]; tomato Botrytis, 100 = 100% disease control, 0 = no disease control relative to controls): 100%
Test G disease control rating ([3]; wheat leaf blotch, sprayed the day before inoculation, 100 = 100% disease control, 0 = no disease control relative to controls): 100%
Test C disease control rating ([4]; tomato early blight, 100 = 100% disease control, 0 = no disease control relative to controls): 95%
Test J disease control rating ([5]; wheat powdery mildew, sprayed the day before inoculation, 100 = 100% disease control, 0 = no disease control relative to controls): 100%
Test F disease control rating ([6]; Septoria glume blotch on wheat, 100 = 100% disease control, 0 = no disease control relative to controls): 0%
Test H disease control rating ([7]; wheat leaf rust, sprayed after inoculation, 100 = 100% disease control, 0 = no disease control relative to controls): 94%

Cc1nn(C)c(Nc2c(F)cccc2F)c1-c1ccc(F)cc1Cl [Compound 172, 4-(2-chloro-4-fluorophenyl)-N-(2,6-difluorophenyl)-1,3-dimethyl-1H-pyrazol-5-amine]
pest or weed control at 200 µg/mL [1, 29]: 99%
pest or weed control at 200 µg/mL [2, 30]: 100%
pest or weed control at 200 µg/mL [3, 31]: 100%
pest or weed control at 200 µg/mL [4, 32]: 100%
pest or weed control at 200 µg/mL [5, 33]: 100%
pest or weed control at 200 µg/mL [6, 34]: 87%
pest or weed control at 200 µg/mL [7, 35]: 0%

Cc1nn(C)c(Oc2cc(C#N)c(C#N)cc2Cl)c1-c1ccc(F)cc1Cl [compound 150]
Test I rating (% disease control) [1, 15]: 74%
Test B rating (% disease control) [2, 16]: 19%
Test G rating (% disease control) [3, 17]: 7%
Test C rating (% disease control) [4, 18]: 0%
Test J rating (% disease control) [5, 19]: 50%
Test F rating (% disease control) [6, 20]: 60%
Test H rating (% disease control) [7, 21]: 0%

Cc1nn(C)c(Nc2c(F)cc(F)cc2Cl)c1-c1ccc(F)cc1Br [Compound 292, 4-(2-bromo-4-fluorophenyl)-N-(2-chloro-4,6-difluorophenyl)-1,3-dimethyl-1H-pyrazol-5-amine]
pest or weed control at 200 µg/mL [1, 29]: 100%
pest or weed control at 200 µg/mL [2, 30]: 100%
pest or weed control at 200 µg/mL [3, 31]: 100%
pest or weed control at 200 µg/mL [4, 32]: 99%
pest or weed control at 200 µg/mL [5, 33]: 100%
pest or weed control at 200 µg/mL [6, 34]: 96%
pest or weed control at 200 µg/mL [7, 35]: 92%

Cc1nn(C)c(Nc2c(F)cc(F)cc2F)c1-c1c(F)cccc1C(F)(F)F [compound 262]
Test I rating (% disease control) [1, 15]: 68%
Test B rating (% disease control) [2, 16]: 99%
Test G rating (% disease control) [3, 17]: 0%
Test C rating (% disease control) [4, 18]: 51%
Test J rating (% disease control) [5, 19]: 99%
Test F rating (% disease control) [6, 20]: 0%
Test H rating (% disease control) [7, 21]: 0%

COc1cc(F)ccc1-c1c(C)nn(C)c1Oc1c(F)cc(C#N)cc1F [compound 89]
Test I rating (% disease control) [1, 22]: 0%
Test B rating (% disease control) [2, 23]: 99%
Test G rating (% disease control) [3, 24]: 99%
Test C rating (% disease control) [4, 25]: 0%
Test J rating (% disease control) [5, 26]: 97%
Test F rating (% disease control) [6, 27]: 0%
Test H rating (% disease control) [7, 28]: 0%

Cc1nn(C)c(Nc2c(F)cc(Br)cc2F)c1-c1ccc(F)cc1F [Compound 364, N-(4-bromo-2,6-difluorophenyl)-4-(2,4-difluorophenyl)-1,3-dimethyl-1H-pyrazol-5-amine]
pest or weed control at 200 µg/mL [1, 8]: 99%
pest or weed control at 200 µg/mL [2, 9]: 99%
pest or weed control at 200 µg/mL [3, 10]: 100%
pest or weed control at 200 µg/mL [4, 11]: 97%
pest or weed control at 200 µg/mL [5, 12]: 100%
pest or weed control at 200 µg/mL [6, 13]: 88%
pest or weed control at 200 µg/mL [7, 14]: 0%

Cc1nn(C)c(Oc2cc(F)c(C#N)cc2F)c1-c1ccc(F)cc1Cl [Compound 148, 4-[[4-(2-chloro-4-fluorophenyl)-1,3-dimethyl-1H-pyrazol-5-yl]oxy]-2,5-difluorobenzonitrile]
pest or weed control at 200 µg/mL [1, 29]: 100%
pest or weed control at 200 µg/mL [2, 30]: 99%
pest or weed control at 200 µg/mL [3, 31]: 100%
pest or weed control at 200 µg/mL [4, 32]: 99%
pest or weed control at 200 µg/mL [5, 33]: 99%
pest or weed control at 200 µg/mL [6, 34]: 100%
pest or weed control at 200 µg/mL [7, 35]: 61%

COc1cc(F)c(-c2c(C)nn(C)c2Oc2ccc(Br)c(F)c2)c(F)c1 [compound 153]
Test I rating (% disease control) [1, 15]: 96%
Test B rating (% disease control) [2, 16]: 100%
Test G rating (% disease control) [3, 17]: 100%
Test C rating (% disease control) [4, 18]: 0%
Test J rating (% disease control) [5, 19]: 98%
Test F rating (% disease control) [6, 20]: 73%
Test H rating (% disease control) [7, 21]: 0%

COc1cc(F)c(-c2c(C)nn(C)c2Oc2ccc(Cl)cn2)c(F)c1 [compound 47]
Test I rating (% disease control), value marked * ([1]; wheat leaf rust, preventive spray, rating marked with asterisk (different test condition, key not given)): 96* %
Test B rating (% disease control), value marked * ([2]; tomato Botrytis, preventive spray, rating marked with asterisk (different test condition, key not given)): 100* %
Test G rating (% disease control), value marked * ([3]; wheat leaf blotch, preventive spray, rating marked with asterisk (different test condition, key not given)): 99* %
Test C rating (% disease control), value marked * ([4]; tomato early blight, preventive spray, rating marked with asterisk (different test condition, key not given)): 87* %
Test J rating (% disease control), value marked * ([5]; wheat powdery mildew, preventive spray, rating marked with asterisk (different test condition, key not given)): 99* %
Test F rating (% disease control), value marked * ([6]; Septoria glume blotch, preventive spray, rating marked with asterisk (different test condition, key not given)): 0* %
Test H rating (% disease control), value marked * ([7]; wheat leaf rust, curative spray, rating marked with asterisk (different test condition, key not given)): 37* %

COc1cc(F)c(-c2c(C)nn(C)c2Oc2ccc(C)c(C#N)c2)c(F)c1 [compound 259]
Test I rating (% disease control) [1, 15]: 86%
Test B rating (% disease control) [2, 16]: 98%
Test G rating (% disease control) [3, 17]: 100%
Test C rating (% disease control) [4, 18]: 9%
Test J rating (% disease control) [5, 19]: 97%
Test F rating (% disease control) [6, 20]: 0%
Test H rating (% disease control) [7, 21]: 0%

COc1ccc(Nc2c(-c3ccc(Cl)cc3Cl)c(C)nn2C)cc1OC [compound 74]
Test I rating (% disease control) [1, 22]: 0%
Test B rating (% disease control) [2, 23]: 0%
Test G rating (% disease control) [3, 24]: 25%
Test C rating (% disease control) [4, 25]: 0%
Test J rating (% disease control) [5, 26]: 0%
Test F rating (% disease control) [6, 27]: 0%
Test H rating (% disease control) [7, 28]: 4%

Cc1nn(C)c(Nc2c(F)cc(C#N)cc2F)c1-c1ccc(F)cc1F [compound 290]
Test I rating (% disease control) [1, 15]: 100%
Test B rating (% disease control) [2, 16]: 100%
Test G rating (% disease control) [3, 17]: 100%
Test C rating (% disease control) [4, 18]: 99%
Test J rating (% disease control) [5, 19]: 100%
Test F rating (% disease control) [6, 20]: 87%
Test H rating (% disease control) [7, 21]: 0%

Cc1nn(C)c(Nc2cc(Cl)ccc2Cl)c1-c1ccc(F)cc1F [compound 245]
Test I rating (% disease control) [1, 15]: 68%
Test B rating (% disease control) [2, 16]: 90%
Test G rating (% disease control) [3, 17]: 97%
Test C rating (% disease control) [4, 18]: 0%
Test J rating (% disease control) [5, 19]: 93%
Test F rating (% disease control) [6, 20]: 0%
Test H rating (% disease control) [7, 21]: 0%
